Assay results: the NIST ThermoML archive (doi:10.1016/j.jct.2004.12.014)
Numbers after ± are expanded uncertainties.

Assays:
[1] = xn = mol fraction of the nth substance listed; conditions: 318.15 K, 101 kPa, Liquid
[2] = excess molar enthalpy (molar enthalpy of mixing); xn = mol fraction of the nth substance listed; conditions: 318.15 K, 101 kPa, Liquid

CCCCOC(=O)CC [butyl propanoate] + CCCCCCC
Conditions | excess molar enthalpy [kcal/mol] | excess molar volume [m3/mol]
[1], x1 = 0.0273 | – | 5.6e-08 ± 1.6e-08
[1], x1 = 0.0572 | – | 1.25e-07 ± 1.6e-08
[1], x1 = 0.1181 | – | 2.05e-07 ± 1.6e-08
[1], x1 = 0.1785 | – | 2.96e-07 ± 1.7e-08
[1], x1 = 0.2334 | – | 3.5e-07 ± 1.7e-08
[1], x1 = 0.2923 | – | 3.76e-07 ± 1.7e-08
[1], x1 = 0.3518 | – | 3.93e-07 ± 1.7e-08
[1], x1 = 0.4089 | – | 4e-07 ± 1.7e-08
[1], x1 = 0.4681 | – | 3.95e-07 ± 1.7e-08
[1], x1 = 0.528 | – | 3.75e-07 ± 1.7e-08
[1], x1 = 0.586 | – | 3.44e-07 ± 1.7e-08
[1], x1 = 0.6449 | – | 3.06e-07 ± 1.7e-08
[1], x1 = 0.7036 | – | 2.6e-07 ± 1.7e-08
[1], x1 = 0.7666 | – | 2.08e-07 ± 1.6e-08
[1], x1 = 0.8207 | – | 1.76e-07 ± 1.6e-08
[1], x1 = 0.8838 | – | 1.05e-07 ± 1.6e-08
[1], x1 = 0.937 | – | 7.2e-08 ± 1.6e-08
[2], x1 = 0.0476 | 0.0417 ± 0.00105 | –
[2], x1 = 0.1067 | 0.0841 ± 0.0017 | –
[2], x1 = 0.1732 | 0.121 ± 0.00225 | –
[2], x1 = 0.2357 | 0.146 ± 0.00263 | –
[2], x1 = 0.2979 | 0.163 ± 0.00287 | –
[2], x1 = 0.3579 | 0.176 ± 0.00311 | –
[2], x1 = 0.4131 | 0.183 ± 0.00311 | –
[2], x1 = 0.4328 | 0.185 ± 0.00311 | –
[2], x1 = 0.464 | 0.186 ± 0.00335 | –
[2], x1 = 0.475 | 0.187 ± 0.00335 | –
[2], x1 = 0.5206 | 0.186 ± 0.00335 | –
[2], x1 = 0.5701 | 0.181 ± 0.00311 | –
[2], x1 = 0.6256 | 0.171 ± 0.00311 | –
[2], x1 = 0.6846 | 0.156 ± 0.00287 | –
[2], x1 = 0.7498 | 0.134 ± 0.00239 | –
[2], x1 = 0.8152 | 0.106 ± 0.00203 | –
[2], x1 = 0.8835 | 0.0717 ± 0.00151 | –
[2], x1 = 0.9449 | 0.0357 ± 0.000956 | –

CCCCCCCCCCCCCCC [pentadecane] + CCC(=O)OC
Conditions | excess molar enthalpy [kcal/mol] | excess molar volume [m3/mol]
[1], x2 = 0.0815 | – | 3.78e-07 ± 1.7e-08
[1], x2 = 0.1606 | – | 7e-07 ± 1.9e-08
[1], x2 = 0.2792 | – | 1.134e-06 ± 2.1e-08
[1], x2 = 0.377 | – | 1.401e-06 ± 2.2e-08
[1], x2 = 0.4695 | – | 1.535e-06 ± 2.3e-08
[1], x2 = 0.5395 | – | 1.586e-06 ± 2.3e-08
[1], x2 = 0.6103 | – | 1.569e-06 ± 2.3e-08
[1], x2 = 0.6695 | – | 1.514e-06 ± 2.3e-08
[1], x2 = 0.7187 | – | 1.405e-06 ± 2.2e-08
[1], x2 = 0.7639 | – | 1.277e-06 ± 2.1e-08
[1], x2 = 0.8034 | – | 1.137e-06 ± 2.1e-08
[1], x2 = 0.8389 | – | 1.001e-06 ± 2e-08
[1], x2 = 0.8718 | – | 8.65e-07 ± 2e-08
[1], x2 = 0.9023 | – | 7.29e-07 ± 1.9e-08
[1], x2 = 0.9297 | – | 5.72e-07 ± 1.8e-08
[1], x2 = 0.9549 | – | 4.07e-07 ± 1.7e-08
[1], x2 = 0.9781 | – | 2.28e-07 ± 1.7e-08
[2], x2 = 0.125 | 0.172 ± 0.00311 | –
[2], x2 = 0.233 | 0.296 ± 0.00502 | –
[2], x2 = 0.3463 | 0.398 ± 0.00645 | –
[2], x2 = 0.435 | 0.457 ± 0.00741 | –
[2], x2 = 0.5058 | 0.486 ± 0.00789 | –
[2], x2 = 0.5584 | 0.495 ± 0.00813 | –
[2], x2 = 0.6021 | 0.495 ± 0.00813 | –
[2], x2 = 0.6368 | 0.487 ± 0.00789 | –
[2], x2 = 0.6819 | 0.466 ± 0.00765 | –
[2], x2 = 0.7197 | 0.439 ± 0.00717 | –
[2], x2 = 0.7527 | 0.408 ± 0.00669 | –
[2], x2 = 0.7913 | 0.367 ± 0.00598 | –
[2], x2 = 0.8294 | 0.318 ± 0.00526 | –
[2], x2 = 0.8668 | 0.272 ± 0.00454 | –
[2], x2 = 0.9037 | 0.217 ± 0.00382 | –
[2], x2 = 0.94 | 0.151 ± 0.00287 | –
[2], x2 = 0.9713 | 0.0789 ± 0.00184 | –

CCCOC(=O)CC [propyl propanoate] + CCCCCCC
Conditions | excess molar enthalpy [kcal/mol] | excess molar volume [m3/mol]
[1], x1 = 0.0283 | – | 9e-08 ± 1.6e-08
[1], x1 = 0.066 | – | 2.02e-07 ± 1.6e-08
[1], x1 = 0.1305 | – | 3.13e-07 ± 1.7e-08
[1], x1 = 0.1912 | – | 4.11e-07 ± 1.7e-08
[1], x1 = 0.2529 | – | 4.97e-07 ± 1.8e-08
[1], x1 = 0.3157 | – | 5.6e-07 ± 1.8e-08
[1], x1 = 0.3768 | – | 5.86e-07 ± 1.8e-08
[1], x1 = 0.437 | – | 6.03e-07 ± 1.8e-08
[1], x1 = 0.4973 | – | 6.01e-07 ± 1.8e-08
[1], x1 = 0.5557 | – | 5.81e-07 ± 1.8e-08
[1], x1 = 0.6132 | – | 5.43e-07 ± 1.8e-08
[1], x1 = 0.6703 | – | 4.91e-07 ± 1.8e-08
[1], x1 = 0.7248 | – | 4.24e-07 ± 1.7e-08
[1], x1 = 0.7801 | – | 3.67e-07 ± 1.7e-08
[1], x1 = 0.8355 | – | 2.94e-07 ± 1.7e-08
[1], x1 = 0.8887 | – | 2.07e-07 ± 1.6e-08
[1], x1 = 0.9444 | – | 1.24e-07 ± 1.6e-08
[2], x1 = 0.0639 | 0.0623 ± 0.00136 | –
[2], x1 = 0.1325 | 0.109 ± 0.00208 | –
[2], x1 = 0.2009 | 0.149 ± 0.00263 | –
[2], x1 = 0.273 | 0.179 ± 0.00311 | –
[2], x1 = 0.338 | 0.198 ± 0.00335 | –
[2], x1 = 0.3985 | 0.208 ± 0.00359 | –
[2], x1 = 0.4549 | 0.215 ± 0.00359 | –
[2], x1 = 0.5052 | 0.218 ± 0.00382 | –
[2], x1 = 0.5147 | 0.218 ± 0.00382 | –
[2], x1 = 0.5577 | 0.214 ± 0.00359 | –
[2], x1 = 0.6066 | 0.207 ± 0.00359 | –
[2], x1 = 0.6615 | 0.194 ± 0.00335 | –
[2], x1 = 0.7197 | 0.173 ± 0.00311 | –
[2], x1 = 0.7781 | 0.147 ± 0.00263 | –
[2], x1 = 0.8381 | 0.115 ± 0.00217 | –
[2], x1 = 0.8975 | 0.0783 ± 0.0016 | –
[2], x1 = 0.9534 | 0.0399 ± 0.00103 | –
